Measurements from patent US10609906B2, “Apparatus and method of using a simulated skin substrate for testing insect repellants” (S. C. JOHNSON & SON, INC., priority 2016, dated 2020).

Assays:
adult female mosquitoes = assay: human surrogate apparatus 100 (Vitro-Skin skin substitute substrate), laboratory, complete protection time; type: in vivo, Aedes aegypti; settings: for Predicted percent DEET concentration (±SE): inverse prediction from model; for CPT data with human surrogate apparatus 100 compared with arm-in-cage group: 10% by weight, laboratory
Description: With reference to FIG. 4, a method of using the human surrogate apparatus 100 is explained.
In certain embodiments, different test substances contain different concentrations of testing insect repellent. The concentration of testing insect repellent can be measured by weight percentage or by volume percentage of the testing insect repellent diluted in ethanol or in any other suitable diluents. […] Further, in the present embodiment, regardless of the concentration of the repellent, the combined mass of the repellent and ethanol is about 0.19 g. In other experiments, the combined mass of the repellent(s) and the diluent(s) is greater or less than about 0.19 g, but similarly stays the same independent of the concentration of the repellent. With different sets of experiments, the amount of skin-applied test substance used in the testing is based on the size of the substrate and the properties of different testing insect repellents, such as the active ingredient dosage.
This cycle of exposure-withdrawal-exposure is repeated until one or more biting insects land on the treated substrate for equal to or longer than 2 seconds.

[1] = surface wetting of insect repellent actives on hydrated skin substitute substrate; type: physicochemical; settings: for surface wetting on skin substitute substrate: ethanol solutions containing 5%, 10%, 15%, and 25% of the active; for surface wetting on hydrated skin substitute substrate: insect repellant active as such
Excerpt: Additionally, the surface wetting of insect repellents on the skin substitute substrate should be close to the surface wetting of insect repellents on human skin. The term “wetting” refers to the ease with which a substance can intimately contact and spread over a given substrate. There are a variety of forces (ionic, static, polar, van der Waals etc.) acting between the substance and the substrates that ensure good bonding. Good wetting provides a larger area of contact where these forces may act. Consequently, good wetting is crucial for good bond formation. […] Complete wetting is achieved when the contact angle between the liquid and the solid surface is approaching or is substantially zero. […] The interaction of ethanol solutions containing 5%, 10%, 15%, and 25% of each aforementioned active substance and the tested skin substitute substrate was also tested. […] Due to this degree of wetting between the insect repellent active and the tested skin substitute substrate, the desired bonding between the active and the tested skin substitute substrate is achieved. As a result, the insect repellent remains on the skin substitute substrate for a duration similar to that of human skin.

wild mosquitoes = assay: portable human surrogate apparatus 200, outdoor field test, complete protection time; type: in vivo; settings: for CPT data with human surrogate apparatus 200 compared with voluntary human subjects group: outdoor field test
Description: The human surrogate apparatus of FIG. 1 is intended for use in a laboratory or controlled environment. Preferably, the controlled environment has a temperature range of between about 24° C. to about 30° C. and a range of relative humidity of between about 40% to about 60%. In contrast, FIGS. 2 and 3 illustrate an embodiment of a human surrogate apparatus 200 for testing the efficacy of a skin-applied insect repellent in the field. By fashioning the human surrogate apparatus 200 to be portable, the apparatus may be used in any number of real world environments. The human surrogate apparatus 200 therefore provides the advantage of similar testing efficacy as human testing, but without exposure to mosquitoes or other insects found in the field.
With reference still to FIGS. 2 and 3, the human surrogate apparatus 200 is disposed in an outdoor environment, with an identified population of biting insects. The portable human surrogate apparatus 200 is provided with a housing 202 having a power supply line 204 connected thereto. In some embodiments, a power supply 206 is located remotely from the housing 202 to provide power to the human surrogate apparatus 200. Alternatively, or in addition, a local power supply is provided within or attached to the housing 202. In such an embodiment, the power supply line 204 may be omitted, provided within the housing 202, or otherwise fashioned differently within the housing 202 to allow energy to reach electrical components thereof
With reference to FIG. 3, the human surrogate apparatus 200 includes a heater 208 in electrical communication with the power supply 206. In the present embodiment, the heater 208 is a silicone-rubber heating blanket, manufactured by BriskHeat Corporation, Columbus, OH. A non-collagen based, non-biological substrate 210 is also provided and is exposed to the ambient environment. In certain embodiments the non-collagen based, non-biological substrate 210 may be synthetic.
In the present embodiment, the substrate 210 is securely fastened to the portable human surrogate apparatus 200 by magnetic strips 212, or may be fastened by any other suitable means. In some embodiments a temperature buffering device 214 is provided beneath the substrate 210, which assists in transmitting heat from the heater 208 and maintains the substrate 210 at a predetermined temperature. In the present embodiment, the temperature buffering device 214 is a water bath, enclosed in a container 220, which is made of materials that prevent water leakage and that transmit heat at the same time. Moreover, the portable human surrogate apparatus 200 is connected to a CO2 source 216, which may be remote from the housing 202, attached to the housing 202, or otherwise retained within the housing 202. In the present embodiment, the CO2 source 216 delivers CO2 at a rate of between about 400 mL/min (14 oz/min) to about 600 mL/min (20.3 oz/min).
It has also been experimentally determined that the human surrogate apparatuses described herein perform consistently in a controlled environment, e.g., a laboratory with predetermined and controllable conditions, and in an uncontrolled environment, e.g., in an outdoor field test. With reference to FIG. 8 and Table 3, the CPT in hours obtained from testing 7% weight percentage DEET repellent efficacy in the laboratory and obtained from the field is similar.
Similarly, for testing substance picaridin (referring to FIGS. 11A-11C) and PMD (referring to FIGS. 12A-12C), the CPT data (including average CPT) in the human surrogate apparatus 200 group shares overlapping confidence intervals with the CPT data in the field test group using the voluntary human subjects.

mosquitoes [2] = assay: arm-in-cage method with human research participants, laboratory, complete protection time; type: in vivo
Excerpt: When comparing the CPT data of skin-applied insect repellents, such as DEET, using the human surrogate apparatus 100 to the CPT data of skin-applied insect repellents obtained using human research participants via the arm-in-cage method (See Product Performance Test Guidelines OPPTS 810.3700: Insect Repellents to be Applied to Human Skin, United States Environmental Protection Agency, EPA 712-10-001, Jul. 7, 2010), data from both groups is very similar to each other as may be seen with reference to FIG. 5 in a controlled environment, e.g., a laboratory. Further, Table 1 illustrates the average CPT for the two methods based on differing weight percentages of the active ingredient DEET of the insect repellent, as well as the […] (“±SE”) at each weight percentage for the two groups. As may be seen, the differences between the experiments using human research participants via the arm-in-cage method and the experiments using the human surrogate apparatus 100 are statistically negligible.

mosquitoes [3] = assay: as above; type: in vivo; settings: inverse prediction from model
[4] = 7% DEET in EtOH, Lab, human surrogate apparatus
[5] = 7% DEET in ethanol, Human Skin Surrogate
[6] = 15% DEET in ethanol, Human Skin Surrogate
[7] = 20% DEET in ethanol, Human Skin Surrogate
[8] = 25% DEET in ethanol, Human Skin Surrogate
[9] = 30% DEET in ethanol, Human Skin Surrogate
[10] = 7% DEET in EtOH, Field, human surrogate apparatus

Structure (SMILES): CCN(CC)C(=O)c1cccc(C)c1 [DEET, N,N-Diethyl-3-methylbenzamide]
- Complete protection time (median) (adult female mosquitoes; [4]): 2.0 h
- Complete protection time Mean ± SE (adult female mosquitoes; [4]): 2.2 ± 0.9 h
- Complete protection time Range (adult female mosquitoes; [4]): 1.0 to 3.5 h
- Complete protection time (median) (adult female mosquitoes; [5]): 2.0 h
- Complete protection time Mean ± SE (adult female mosquitoes; [5]): 2.2 ± 0.9 h
- Complete protection time (median) (adult female mosquitoes; [6]): 3.3 h
- Complete protection time Mean ± SE (adult female mosquitoes; [6]): 3.6 ± 1.0 h
- Complete protection time (median) (adult female mosquitoes; [7]): 5.3 h
- Complete protection time Mean ± SE (adult female mosquitoes; [7]): 4.9 ± 2.1 h
- Complete protection time (median) (adult female mosquitoes; [8]): 6.5 h
- Complete protection time Mean ± SE (adult female mosquitoes; [8]): 6.3 ± 1.1 h
- Complete protection time (median) (adult female mosquitoes; [9]): 7.0 h
- Complete protection time Mean ± SE (adult female mosquitoes; [9]): 6.5 ± 2.3 h
- Predicted percent DEET concentration (±SE) (adult female mosquitoes; for complete protection time 1 h, Human Skin Surrogate): 3.81 ± 1.72%
- Predicted percent DEET concentration (±SE) (adult female mosquitoes; for complete protection time 2 h, Human Skin Surrogate): 8.17 ± 1.16%
- Predicted percent DEET concentration (±SE) (adult female mosquitoes; for complete protection time 3 h, Human Skin Surrogate): 11.92 ± 1.04%
- Predicted percent DEET concentration (±SE) (adult female mosquitoes; for complete protection time 4 h, Human Skin Surrogate): 15.71 ± 1.13%
- Predicted percent DEET concentration (±SE) (adult female mosquitoes; for complete protection time 5 h, Human Skin Surrogate): 20.00 ± 1.21%
- Predicted percent DEET concentration (±SE) (adult female mosquitoes; for complete protection time 6 h, Human Skin Surrogate): 25.55 ± 1.58%
- surface wetting on skin substitute substrate [1]: substantially complete wetting
- surface wetting on hydrated skin substitute substrate [1]: substantially complete wetting
- Complete protection time (median) (wild mosquitoes; [10]): 2.0 h
- Complete protection time Mean ± SE (wild mosquitoes; [10]): 2.0 ± 0.4 h
- Complete protection time Range (wild mosquitoes; [10]): 1.5 to 2.5 h
- CPT data with human surrogate apparatus 200 compared with voluntary human subjects group (wild mosquitoes): not significantly different
- Complete protection time (median) (mosquitoes [2]; 7% DEET in ethanol): 2.3 h
- Complete protection time Mean ± SE (mosquitoes [2]; 7% DEET in ethanol): 2.5 ± 0.7 h
- Complete protection time (median) (mosquitoes [2]; 15% DEET in ethanol): 3.5 h
- Complete protection time Mean ± SE (mosquitoes [2]; 15% DEET in ethanol): 3.9 ± 1.5 h
- Complete protection time (median) (mosquitoes [2]; 20% DEET in ethanol): 3.8 h
- Complete protection time Mean ± SE (mosquitoes [2]; 20% DEET in ethanol): 4.9 ± 2.1 h
- Complete protection time (median) (mosquitoes [2]; 25% DEET in ethanol): 6.8 h
- Complete protection time Mean ± SE (mosquitoes [2]; 25% DEET in ethanol): 6.5 ± 1.4 h
- Complete protection time (median) (mosquitoes [2]; 30% DEET in ethanol): 6.6 h
- Complete protection time Mean ± SE (mosquitoes [2]; 30% DEET in ethanol): 6.6 ± 0.7 h
- Predicted percent DEET concentration (±SE) (mosquitoes [3]; for complete protection time 1 h): 1.61 ± 1.69%
- Predicted percent DEET concentration (±SE) (mosquitoes [3]; for complete protection time 2 h): 6.15 ± 0.94%
- Predicted percent DEET concentration (±SE) (mosquitoes [3]; for complete protection time 3 h): 10.07 ± 0.88%
- Predicted percent DEET concentration (±SE) (mosquitoes [3]; for complete protection time 4 h): 14.08 ± 1.15%
- Predicted percent DEET concentration (±SE) (mosquitoes [3]; for complete protection time 5 h): 18.70 ± 1.46%
- Predicted percent DEET concentration (±SE) (mosquitoes [3]; for complete protection time 6 h): 24.85 ± 2.64%

Structure (SMILES): CCC(C)OC(=O)N1CCCCC1CCO (stereo not shown) [picaridin, 2-(2-hydroxyethyl)-1-piperidinecarboxylic acid 1-methylpropyl ester]
- CPT data with human surrogate apparatus 100 compared with arm-in-cage group (adult female mosquitoes): within the range of CPT data points of the group employing the arm-in-cage method
- surface wetting on skin substitute substrate [1]: substantially complete wetting
- surface wetting on hydrated skin substitute substrate [1]: substantially complete wetting
- CPT data with human surrogate apparatus 200 compared with voluntary human subjects group (wild mosquitoes): No statistically significant difference

Structure (SMILES): CC1CCC(C(C)(C)O)C(O)C1 (stereo not shown) [PMD, para-menthane-3,8-diol]
- CPT data with human surrogate apparatus 100 compared with arm-in-cage group (adult female mosquitoes): not significantly different
- surface wetting on skin substitute substrate [1]: substantially complete wetting
- surface wetting on hydrated skin substitute substrate [1]: substantially complete wetting
- CPT data with human surrogate apparatus 200 compared with voluntary human subjects group (wild mosquitoes): No statistically significant difference
